How the values were obtained:
Type in all cases: cell-based
dKCNQ [1] = biological target: T1, dKCNQ (Drosophila melanogaster, UniProt Q5PXF9); test: whole-cell patch clamp, HEK cells, current at +[…] mV; details: HEK293
T1 construct: gene KCNQ; full-length cDNA RE26469 in pIRES2-EGFP, expressed in HEK cells; homotetramer
T1 sequence (Q5PXF9 1-808): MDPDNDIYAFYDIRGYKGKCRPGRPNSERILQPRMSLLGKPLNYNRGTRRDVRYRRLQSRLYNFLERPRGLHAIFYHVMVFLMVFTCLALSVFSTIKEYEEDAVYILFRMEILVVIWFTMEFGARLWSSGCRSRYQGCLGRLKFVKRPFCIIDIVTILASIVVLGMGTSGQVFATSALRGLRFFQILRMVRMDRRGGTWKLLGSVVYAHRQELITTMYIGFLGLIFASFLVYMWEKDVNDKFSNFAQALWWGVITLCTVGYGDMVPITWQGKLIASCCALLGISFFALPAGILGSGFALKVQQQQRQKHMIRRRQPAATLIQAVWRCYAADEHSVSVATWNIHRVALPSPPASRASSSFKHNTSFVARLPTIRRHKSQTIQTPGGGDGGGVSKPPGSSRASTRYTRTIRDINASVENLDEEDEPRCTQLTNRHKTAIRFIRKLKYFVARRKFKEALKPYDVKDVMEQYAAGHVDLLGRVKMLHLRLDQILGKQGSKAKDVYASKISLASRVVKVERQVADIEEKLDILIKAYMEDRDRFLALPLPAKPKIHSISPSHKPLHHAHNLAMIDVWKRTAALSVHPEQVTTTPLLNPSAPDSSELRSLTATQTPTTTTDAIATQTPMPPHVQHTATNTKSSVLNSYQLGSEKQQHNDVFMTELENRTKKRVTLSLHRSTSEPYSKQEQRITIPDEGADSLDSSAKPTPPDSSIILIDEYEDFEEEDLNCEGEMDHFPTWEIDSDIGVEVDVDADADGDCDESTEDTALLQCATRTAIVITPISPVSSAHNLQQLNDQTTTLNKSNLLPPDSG

KCNQ2/3 [2] = biological target: T2, KCNQ2/3 (Rattus norvegicus, UniProt O88943+O88944); test: as above; details: HEK293
T2 construct: rat KCNQ2 and KCNQ3 cDNAs in pcDNA3.1 co-transfected 1:1 in HEK cells; heterotetramer

dKCNQ [3] = biological target: T1, dKCNQ; test: as above
KCNQ1/KCNE1 = biological target: T3, KCNQ1/KCNE1 (Homo sapiens, UniProt P51787); test: as above; details: HEK293
T3 construct: human KCNQ1 co-expressed with KCNE1 (cDNA 1:2) in HEK cells, pIRES1-CD8; with Potassium voltage-gated channel subfamily E member 1

KCNQ2/3 [4] = biological target: T2, KCNQ2/3; test: whole-cell patch clamp, HEK cells, current at −[…] mV; details: opener; at −30 mV; activation V0.5 shifted by −24 mV; pH 7.2; room temperature

T2 sequence (O88943 whole entry): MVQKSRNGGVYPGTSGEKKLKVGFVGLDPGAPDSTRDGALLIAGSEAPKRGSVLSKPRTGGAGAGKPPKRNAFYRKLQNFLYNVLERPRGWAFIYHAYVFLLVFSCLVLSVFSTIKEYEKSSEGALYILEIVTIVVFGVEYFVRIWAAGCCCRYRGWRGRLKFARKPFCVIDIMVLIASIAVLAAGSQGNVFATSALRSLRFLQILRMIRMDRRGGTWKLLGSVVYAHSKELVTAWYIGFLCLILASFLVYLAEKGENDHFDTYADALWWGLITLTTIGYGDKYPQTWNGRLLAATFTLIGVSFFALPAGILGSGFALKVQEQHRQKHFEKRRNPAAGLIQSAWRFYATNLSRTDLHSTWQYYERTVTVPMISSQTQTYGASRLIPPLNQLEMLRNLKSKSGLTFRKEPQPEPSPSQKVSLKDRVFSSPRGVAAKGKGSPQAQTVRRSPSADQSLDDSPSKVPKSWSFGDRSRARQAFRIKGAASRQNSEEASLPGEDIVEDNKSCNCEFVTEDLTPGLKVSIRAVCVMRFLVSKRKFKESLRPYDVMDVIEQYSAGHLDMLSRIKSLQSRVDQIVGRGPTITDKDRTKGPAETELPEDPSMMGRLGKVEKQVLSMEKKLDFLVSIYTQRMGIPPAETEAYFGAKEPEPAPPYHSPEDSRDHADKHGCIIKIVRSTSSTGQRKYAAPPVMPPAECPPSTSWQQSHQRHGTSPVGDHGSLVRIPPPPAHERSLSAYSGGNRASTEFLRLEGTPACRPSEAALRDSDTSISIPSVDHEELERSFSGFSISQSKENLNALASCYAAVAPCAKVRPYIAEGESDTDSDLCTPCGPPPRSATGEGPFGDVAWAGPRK
T2 sequence (O88944 whole entry): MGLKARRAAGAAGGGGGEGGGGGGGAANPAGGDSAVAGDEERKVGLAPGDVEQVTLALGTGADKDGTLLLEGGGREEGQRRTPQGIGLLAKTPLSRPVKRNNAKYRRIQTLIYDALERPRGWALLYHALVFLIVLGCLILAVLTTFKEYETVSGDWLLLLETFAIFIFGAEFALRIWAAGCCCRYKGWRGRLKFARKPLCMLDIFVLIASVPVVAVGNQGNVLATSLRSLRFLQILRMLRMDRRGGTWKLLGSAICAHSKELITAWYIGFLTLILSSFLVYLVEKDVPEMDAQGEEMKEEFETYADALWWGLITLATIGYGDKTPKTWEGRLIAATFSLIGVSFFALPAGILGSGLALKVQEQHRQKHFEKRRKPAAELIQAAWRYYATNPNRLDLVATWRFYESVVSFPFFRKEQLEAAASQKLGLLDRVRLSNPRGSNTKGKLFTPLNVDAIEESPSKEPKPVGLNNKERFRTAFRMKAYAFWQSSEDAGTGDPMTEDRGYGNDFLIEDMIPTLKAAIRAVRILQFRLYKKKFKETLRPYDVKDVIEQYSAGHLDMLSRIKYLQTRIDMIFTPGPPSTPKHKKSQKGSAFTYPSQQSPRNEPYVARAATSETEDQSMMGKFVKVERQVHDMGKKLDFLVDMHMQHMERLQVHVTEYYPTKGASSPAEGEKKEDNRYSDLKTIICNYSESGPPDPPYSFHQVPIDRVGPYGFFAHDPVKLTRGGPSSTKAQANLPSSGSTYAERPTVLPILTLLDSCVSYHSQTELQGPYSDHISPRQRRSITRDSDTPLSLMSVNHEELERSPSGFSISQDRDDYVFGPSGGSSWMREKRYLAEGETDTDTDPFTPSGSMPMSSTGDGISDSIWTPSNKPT
T3 sequence (P51787 whole entry): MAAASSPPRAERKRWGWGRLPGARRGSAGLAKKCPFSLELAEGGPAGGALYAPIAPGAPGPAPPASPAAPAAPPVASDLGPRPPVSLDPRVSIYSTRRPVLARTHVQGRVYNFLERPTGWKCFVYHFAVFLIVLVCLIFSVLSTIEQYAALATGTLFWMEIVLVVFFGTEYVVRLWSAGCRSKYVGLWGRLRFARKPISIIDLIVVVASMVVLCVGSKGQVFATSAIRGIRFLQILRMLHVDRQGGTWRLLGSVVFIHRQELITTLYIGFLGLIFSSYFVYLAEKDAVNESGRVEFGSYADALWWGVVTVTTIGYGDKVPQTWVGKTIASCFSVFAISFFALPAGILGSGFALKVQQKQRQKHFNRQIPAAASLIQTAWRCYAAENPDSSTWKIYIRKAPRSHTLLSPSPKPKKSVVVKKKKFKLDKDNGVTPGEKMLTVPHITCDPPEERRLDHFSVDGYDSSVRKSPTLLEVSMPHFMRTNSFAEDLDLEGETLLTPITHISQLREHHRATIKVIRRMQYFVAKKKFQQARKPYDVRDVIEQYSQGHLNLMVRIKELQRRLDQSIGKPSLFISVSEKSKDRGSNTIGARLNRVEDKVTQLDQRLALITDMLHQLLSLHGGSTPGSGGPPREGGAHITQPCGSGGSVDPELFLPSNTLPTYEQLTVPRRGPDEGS

Row | Compound | inhibition at 10 µM (dKCNQ [1]) [%] | inhibition at 10 µM (KCNQ2/3 [2]) [%] | IC50 (dKCNQ [3]) [µM] | inhibition at 10 µM (KCNQ1/KCNE1) [%] | % current enhancement at 10 μM (KCNQ2/3 [4])
1 | O=C1N(c2ccccc2)c2ccccc2C1(Cc1ccncc1)Cc1ccncc1 [linopirdine] | ~30 | ~40 | – | – | –
2 | O=C1c2ccccc2C(Cc2ccncc2)(Cc2ccncc2)c2ccccc21 [XE991, 10,10-bis(4-Pyridinylmethyl)-9(10H)-anthracenone] | – | ~50 | 5.5 ± 1.1 | – | –
3 | CCS(=O)(=O)N(C)C1c2cc(C#N)ccc2OC(C)(C)C1O (stereo not shown) [chromanol 293B] | – | – | 13 ± 3.6 | ~56 | –
4 | CCOC(=O)Nc1ccc(NCc2ccc(F)cc2)cc1N [retigabine] | – | – | – | – | ~ 35%
